How the values were obtained:
Thermolysin = molecular target: T1, Thermolysin (Bacillus thermoproteolyticus, UniProt P00800); assay: Thermolysin assay, casein substrate; format: biochemical
T1 construct: purchased Sigma P1512; host or cells: Bacillus thermoproteolyticus
Description: (§1) Selectivity of α-substituted Hydrazides: Calpain I and II were assayed as described in Example 1. One to 2 ng papain (papaya latex, Sigma, P3125), 1.25 μg trypsin (bovine pancreas, Sigma, T8003), 5 μg thermolysin (Bacillus thermoproteolyticus, Sigma, P1512) were assayed using 0.5 mg/mL casein as substrate in the microplate format (250 μL reaction volume), essentially a described by Buroker-Kilgore, M. and Wang K K W, Anal Biochem 1993;208: 387-392. Cathepsin B (0.002 unit, bovine spleen) was assayed with 50 mM MES (pH 5.5), 100 μM carbobenzoxy-Arg-Arg-4-methoxy-beta-naphthlamide (Cbz-Arg-Arg-MNA), inhibitor, and 2 mM DTT in 200 μL for 60 minutes at room temperature. Fifty-microliter aliquots were transferred to a fluorescence-compatible plate and then read with a Perkin-Elmer fluorometer LS-50B (excitation 340 nm and emission 425 nm). Calcineurin (bovine brain, Sigma) (5 μg, 0.8 unit) was assayed with 10 mM p-nitrophenyl phosphate in 1 mM DTT, 1 mM CaCl2, 1 mM MnCl2, […] calmodulin (CaM, if added), and 50 mM Tris-HCl (pH 7.4) at 25° C. for 60 minutes or more. Production of p-nitrophenol was monitored at 405 nm. Inhibition of these proteases are presented as IC50.

Trypsin = molecular target: T2, Trypsin (Bos taurus, UniProt P00760); assay: Trypsin assay, casein substrate; format: biochemical, bovine; conditions: 0.5 mg/mL casein
T2 construct: purchased Sigma T8003; host or cells: bovine pancreas
T2 sequence (P00760 24-246): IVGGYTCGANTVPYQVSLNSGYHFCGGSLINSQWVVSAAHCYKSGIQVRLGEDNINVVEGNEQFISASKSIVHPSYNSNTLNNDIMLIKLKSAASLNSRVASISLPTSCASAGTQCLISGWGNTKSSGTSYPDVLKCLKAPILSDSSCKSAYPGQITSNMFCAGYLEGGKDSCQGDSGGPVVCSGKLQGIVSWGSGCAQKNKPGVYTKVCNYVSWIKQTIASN
Description: as §1

Papain = molecular target: T3, Papain (Carica papaya, UniProt P00784); assay: Papain assay, casein substrate; format: biochemical; conditions: 0.5 mg/mL casein
T3 construct: purchased Sigma P3125; host or cells: papaya latex
T3 sequence (P00784 134-345): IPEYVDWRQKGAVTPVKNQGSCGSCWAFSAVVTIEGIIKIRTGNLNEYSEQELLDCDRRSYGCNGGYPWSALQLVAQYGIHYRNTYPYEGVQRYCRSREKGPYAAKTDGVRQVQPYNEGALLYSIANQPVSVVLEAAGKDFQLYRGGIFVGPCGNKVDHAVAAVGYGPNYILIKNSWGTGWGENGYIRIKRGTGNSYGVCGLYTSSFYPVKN
Description: as §1

Cathepsin B = molecular target: T4, Cathepsin B (Bos taurus, UniProt P07688); assay: Cathepsin B assay (Cbz-Arg-Arg-MNA substrate); format: biochemical, bovine; conditions: pH 5.5, 60 minutes, room temperature
T4 construct: Cathepsin B (0.002 unit, bovine spleen); from tissue; host or cells: bovine spleen
Description: as §1

[1] = system: Fetal Rat Cerebrocortical Cultures; assay: Oxygen/glucose deprivation induced LDH release from fetal rat cerebrocortical cultures; format: cell-based
Human Calpain I = molecular target: T5, Human Calpain I (Homo sapiens, UniProt P07384); assay: Calpain I activity, casein substrate, Coomassie microplate assay; format: biochemical
T5 construct: Calpain I was purified from human erythrocytes; from tissue; host or cells: human erythrocytes
T5 sequence (P07384 1-714): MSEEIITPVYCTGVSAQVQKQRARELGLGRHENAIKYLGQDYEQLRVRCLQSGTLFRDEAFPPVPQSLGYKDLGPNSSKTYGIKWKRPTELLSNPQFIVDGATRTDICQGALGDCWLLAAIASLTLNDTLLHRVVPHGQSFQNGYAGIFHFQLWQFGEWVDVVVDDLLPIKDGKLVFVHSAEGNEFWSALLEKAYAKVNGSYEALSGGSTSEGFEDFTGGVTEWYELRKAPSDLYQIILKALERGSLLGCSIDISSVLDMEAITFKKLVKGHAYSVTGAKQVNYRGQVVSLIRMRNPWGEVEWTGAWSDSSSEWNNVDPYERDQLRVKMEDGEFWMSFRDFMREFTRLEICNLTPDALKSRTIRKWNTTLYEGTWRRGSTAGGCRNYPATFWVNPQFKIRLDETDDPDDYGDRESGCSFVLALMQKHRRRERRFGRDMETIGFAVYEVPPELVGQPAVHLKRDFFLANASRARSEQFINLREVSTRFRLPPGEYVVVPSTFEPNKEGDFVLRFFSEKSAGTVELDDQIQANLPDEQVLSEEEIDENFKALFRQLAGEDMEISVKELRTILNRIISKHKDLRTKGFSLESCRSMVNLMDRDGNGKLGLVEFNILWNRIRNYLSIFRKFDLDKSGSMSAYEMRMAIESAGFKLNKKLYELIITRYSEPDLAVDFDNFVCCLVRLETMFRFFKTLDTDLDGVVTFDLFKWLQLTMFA
T5 sequence (P04632 1-268 partner): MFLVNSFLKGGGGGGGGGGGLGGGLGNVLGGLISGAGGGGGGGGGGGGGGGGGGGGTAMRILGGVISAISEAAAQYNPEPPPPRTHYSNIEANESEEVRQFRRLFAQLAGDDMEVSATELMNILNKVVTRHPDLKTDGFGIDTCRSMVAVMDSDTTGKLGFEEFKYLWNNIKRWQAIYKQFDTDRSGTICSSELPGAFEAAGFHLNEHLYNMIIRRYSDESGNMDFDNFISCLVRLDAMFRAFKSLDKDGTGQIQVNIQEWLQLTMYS
Description: Assay of calpain activity: Calpain I was purified from human erythrocytes as described by Wang K K W, Roufogalis B D, and Villalobo A, Arch Biochem Biophys 1988;267: 317-327. Calpain activity was assayed in a 96-well microplate format (Buroker-Kilgore M and Wang K K W, Anal Bio Chem 1993;208: 387-392). In 250 μL of reaction mixture, substrate casein (0.5 mg/mL) was incubated with 0.01 unit (80-120 ng) calpain I, 20 mM dithiothreitol (DTT), 50 mM Tris-HCl (pH 7.4 at 25° C.) and 4 mM CaCl2 at 25° C. for 60 minutes. Two 100-μL aliquots were taken for Coomassie blue G250 binding analysis to quantify the remaining casein.
Compound concentrations that cause 50% inhibition (IC50) are as shown (Table I). The second rate of inactivation of calpain I for 2 compounds are also shown.
as §1

T1 sequence (P00800 233-548): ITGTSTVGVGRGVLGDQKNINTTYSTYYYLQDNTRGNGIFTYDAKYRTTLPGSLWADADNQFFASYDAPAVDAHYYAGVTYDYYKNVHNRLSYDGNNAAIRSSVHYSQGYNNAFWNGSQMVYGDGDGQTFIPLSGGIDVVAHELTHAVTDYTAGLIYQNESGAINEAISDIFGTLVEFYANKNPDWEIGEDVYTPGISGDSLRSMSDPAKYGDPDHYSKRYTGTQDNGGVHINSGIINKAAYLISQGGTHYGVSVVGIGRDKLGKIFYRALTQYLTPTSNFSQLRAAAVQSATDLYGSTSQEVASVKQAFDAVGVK

O=C(CCl)NN=c1[nH]c2ccccc2n(-c2ccccc2)c1=O [Example 5, 2-Chloro-acetic acid (3-oxo-4-phenyl-3,4-dihydro-1H-quinoxalin-2-ylidene)-hydrazide]
IC50 (Thermolysin): > 500 µM | IC50 (Trypsin): > 200 µM | IC50 (Papain): 5.6 µM | IC50 (Cathepsin B): > 200 µM | LDH release ([1]; Hypoxia/Hypoglycemia, mean ± SEM (6), p < 0.001 vs Hypoxia/Hypoglycemia alone (143.81 ± 9.72), Normoxia 46.13 ± 6.08): 57.27 ± 8.11 Unit/mL | Resistance of neurons to oxygen/glucose deprivation ([1]; LDH release after 24 hours): enabled the neurons to resist the oxygen/glucose deprivation for longer | Ki/[I] Calpain I (second rate of inactivation) (Human Calpain I): 109 M⁻¹ s⁻¹ | IC50 (Human Calpain I; casein 0.5 mg/mL, pH 7.4, 25° C., 60 minutes (Table I)): 0.364 µM

Reference: US5679680A, “α-substituted hydrazides having calpain inhibitory activity” (Warner-Lambert Company, priority 1995, dated 1997)
